US10420744B2, “Composition of chlorogenic acid and methods of making and using the same in treating serum lipid levels” (Vidya Herbs, Inc., priority 2014, dated 2019)
Marks after values point to notes of the source that are not given here.

System: high fat diet fed rats
Assay: Anti-obesity activity, high fat diet in rats
Type: in vivo, Wistar rats
Settings: Group III: high fat diet + orlistat 30 mg/kg
Method: Objective: The objective was to investigate the effect of the CGA-7 complex against high fat diet fed rats. Model: High fat diet in rats […] Male Wistar rats were divided into six groups with six animals in each group. [table] Body weight was measured once every 2 days. Food intake was measured daily for 42 days. On day 43, all the animals were kept overnight fasting before sacrifice. Blood was collected by puncturing the retro orbital plexus. Serum was separated by centrifugation at 3000 rpm for 10 minutes. Serum was estimated for glucose, cholesterol, triglycerides and HDL. LDL and atherogenic index were also calculated. Liver, mesenteric, brown adipose tissue (BAT), left and right perirenal fat pads, left and right epididymal pads were isolated and weighed. Liver was isolated and estimated for liver triglycerides and cholesterol levels.

CCCCCCCCCCC[C@@H](C[C@@H]1OC(=O)[C@H]1CCCCCC)OC(=O)[C@H](CC(C)C)NC=O [orlistat, Orlistat]
liver cholesterol: 49.66 ± 3.28***^b
liver triglycerides: 64.64 ± 3.44***^b
Average food intake (42 days): 8.54 ± 0.40^nsb g/rat
BAT (42 days): 0.19 ± 0.01**^b
Difference in body weight (42 days): 88.01 ± 3.68***^b
Epididymal fat pad Left (42 days): 0.50 ± 0.01**^b
Epididymal fat pad Right (42 days): 0.48 ± 0.01*^b
Liver organ weight (42 days): 3.47 ± 0.11***^b
Mesenteric fat (42 days): 0.98 ± 0.03*^b
Peri renal fat pad tissue Left (42 days): 0.61 ± 0.05*^b
Peri renal fat pad tissue Right (42 days): 0.65 ± 0.04*^b
Initial weight (baseline, in g (unit assumed)): 130.3 ± 0.56
Atherogenic Index (calculated): 2.20 ± 0.20***^b
serum Glucose (day 43): 109.7 ± 3.93**^b mg/dL
serum HDL-c (day 43): 20.47 ± 1.08*^b mg/dL
serum Total cholesterol (day 43): 63.38 ± 0.95***^b mg/dL
serum Triglyceride (day 43): 77.63 ± 4.27***^b mg/dL
serum LDL-c (day 43, calculated): 27.39 ± 1.07^nsb mg/dL
Final weight (male Wistar rats, 42 days, in g (unit assumed)): 218.4 ± 2.65
